{"source": "ChEMBL document CHEMBL1921713", "about": "“A simple synthesis of APM ([p-(N-acrylamino)-phenyl]mercuric chloride), a useful tool for the analysis of thiolated biomolecules” (Bioorg Med Chem Lett, 2011)", "assay_type_in_all_cases": "nucleic-acid assay", "key": {"Nucleic Acid [1]": {"system": "Nucleic Acid", "assay": "Binding affinity to Schizosaccharomyces pombe Thiolated Lys-tRNA using 32P-labelled probe by PAGE analysis"}, "Nucleic Acid [2]": {"system": "Nucleic Acid", "assay": "Binding affinity to Schizosaccharomyces pombe Non-thiolated Met-tRNA using 32P-labelled probe by PAGE analysis"}, "Nucleic Acid [3]": {"system": "Nucleic Acid", "assay": "Binding affinity to ctu1-deficient Schizosaccharomyces pombe Lys-tRNA using 32P-labelled probe by PAGE analysis"}}, "note": "Activity calls are given as the source filed them. No cut-off for these calls is given here.", "data": [{"substance": "[p-(N-acrylamino)-phenyl]mercuric chloride", "values": [{"measurement": "Activity", "setting": "Nucleic Acid [1]", "result": "Active"}, {"measurement": "Activity", "setting": "Nucleic Acid [2]", "result": "inactive"}, {"measurement": "Activity", "setting": "Nucleic Acid [3]", "result": "inactive"}]}]}
